Data reported in patent US20240075027A1, “REPOSITIONING THE ANTI-LEPROSY DRUG CLOFAZIMINE AGAINST DRUG-RESISTANT MYELOMA AND PUTATIVE STEM-CELL SUBCLONES” (Auburn University, priority 2022, published 2024).
Read-outs that look alike come from different tables or passages of the source.

How the values were obtained:
[1] = tested on: apoptotic, ER stress, autophagy and survival proteins in myeloma cells; assay: Western blotting (immunoblotting) pre- vs post-treatment; format: cell-based, human
Procedure: Cells treated with CLF, PI, or IMiD as single-agent or as a combination for 24 h were harvested, washed, and lysed using radioimmunoprecipitation assay (RIPA) lysis buffer containing 50 mM Tris-HCl, pH 7.5, 150 mM NaCl, 1% NP40, 5 mM EDTA, 1 mM DTT, phosphatase and […] cocktail (Sigma), and incubated on ice for 15 min. Samples were then centrifuged at 14,000 rpm at 4° C. for 30 mins. The supernatant was then aspirated, total protein was isolated and quantified using Pierce BCA Protein Assay Kit (Thermo Scientific). Samples were solubilized in SDS-PAGE sample buffer, and equal amounts of protein were loaded per lane of 10% SDS polyacrylamide gels and transferred onto PVDF membranes (Millipore; Billerica, MA). Membranes were blocked in TBS with SuperBlock® blocking buffer (Thermo Fisher). Membranes were then incubated with primary antibodies and secondary antibodies in TBS with 0.2% Tween® 20 and 2.5% BSA. Immunoreactivity was detected by Chemiluminescent HRP Substrate (Bio-Rad), and the exposed image was captured using a ChemiDoc MP Imaging System (Bio-Rad). Densitometry analysis was performed (in triplicates) using Image J software.

[2] = tested on: HMCLs and patient primary myeloma cells; assay: Mass cytometry (CyTOF) single-cell proteomics; format: cell-based, human
Procedure: Mass cytometry (CyTOF) analysis is a single-cell proteomics methodology that combines flow cytometry and elemental mass spectrometry. Thirty-seven antibody targets directed against cell surface (neoplastic myeloma) and intracellular markers (immune tumor microenvironment) were utilized for immunophenotyping panels. The antibody markers and respective metal conjugates are described in Table 2. One to three million untreated or treated (for 24 h) HMCLs or primary human myeloma cells were used for CyTOF staining. Cells were stained with cisplatin (1:10,000 dilutions in RPMI1640 media without FBS) at 37° C. for 5 minutes, washed with media with 10% FBS, spun at 300×g, and incubated with media with 10% FBS for 15 min. This was followed by another wash, spin, and the pellet was resuspended in 1× Fix buffer for 10 minutes at room temperature. HMCL samples, along with lyophilized healthy human PBMC (Veri-Cells PBMC: control cells; BioLegend), were washed using Maxpar cell staining buffer (MCSB) (Fluidigm). A total of 16 μL of the surface antibody cocktail was added to each tube containing each cell suspension in 100 μL of MCSB and incubated for 30 minutes at room temperature. Cells were washed with MCSB to remove excess antibodies and stored overnight at −80° C. after methanol fixation. Cells were washed with MCSB and incubated with 20 μL of intracellular antibody cocktail for 30 minutes at room temperature, followed by wash and fixation with fresh 1.6% formaldehyde solution for 10 minutes at room temperature. Cells were washed with MCSB and resuspended in 1 ml of Cell-ID™ Intercalator solution (1:4000 dilution in permeabilization buffer, Maxper Fix, and Perm Buffer). All samples were barcoded using cell-ID™ 20-Plex Barcoding Kit (Fluidigm), which were then stained, washed with MSCB, and acquired as a single multiplexed sample using Maxpar Cell Acquisition solution contained calibration beads.
Samples were loaded onto a Helios CyTOF system (Fluidigm) using an attached autosampler and were acquired at a rate of 200-400 events per second. Data were collected as .FCS files using the CyTOF Software (Version 6.7.1014, Fluidigm). After acquisition, intrafile signal drift was normalized to the acquired calibration bead signal using the CyTOF Software.
For CyTOF data analysis, Cytobank software version 7.3.0 (Santa Clara, CA) was used for cleanup of cell debris, removal of doublets and dead cells, and analysis of cleaned fcs files. Clustering, dimensionality reduction (to 10,000 events per file), and the visualization of cell population cluster map were performed by t-SNE. Relative marker intensities and cluster abundances per sample were visualized by a heatmap.

[3] = cited from earlier work
[4] = tested on: caspase-3/7 activity in HMCLs; assay: Caspase-Glo 3/7 luminescent assay; format: cell-based, human
Procedure: Caspase-3/7 activity assays were performed on the HMCLs using Caspase-Glo 3/7 luminescent assay kit according to manufacturer's instructions (Promega Madison, WI). Briefly, 1×10^6 cells/ ml were cultured in 6-well plates and treated with either CLF alone and/or combination for indicated times. After harvesting, cells were washed twice with cold PBS and resuspended with Caspase-Glo 3/7 reagents. Reactions were incubated for 1 h at 37° C., and luminescence was determined using Synergy 2 Microplate Reader (Biotek). Cell death by apoptosis was also measured by immunoblotting analysis.

[5] = tested on: bone marrow-derived CD138+ primary myeloma cells (PMCs); assay: Ex vivo direct-to-drug screening assay (CellTiter-Glo); format: cell-based; conditions: Homo sapiens, single-agent
Procedure: Bone marrow-derived CD138+ primary myeloma cells were obtained from patients (n=16) and used as ex vivo model systems. Written informed consent was received from participants prior to inclusion in the study. Participants have been identified by number, not by name. The primary samples were cultured as total bone marrow and put in culture to retain the patients' natural BM microenvironment. Cells of interest were CD138+-gated during analysis. The drugs were screened in a 7-point, 10-fold dilution, with the highest concentration at 10 μM, and incubated for 24 h. Anti-MM activity was assessed through cellular viability, evaluated with CellTiter-Glo®. The mid-point EC50, percentage of maximum inhibition was calculated using the TIBCO Spotfire® v.7.0.0 software, and the area under the curve (AUC) was calculated with the GraphPad Prism v.8 software (Bonolo de Campos et al., 2020, Blood Cancer J., 10:54).

HMCLs = assay: Apoptosis assay (Annexin V-FITC flow cytometry); format: cell-based, human
Procedure: Cells were cultured for 48 h in the presence of indicated concentrations of compounds, harvested and washed, and incubated with Annexin V-FITC (BD Biosciences) and Propidium Iodide for 15 min at room temperature in the dark. Apoptosis was measured by BD LSR II flow cytometry (BD Biosciences).

ALDH+ myeloma cells = assay: Aldefluor (ALDH) activity assay; format: cell-based, human; conditions: 24 h
Procedure: Aldehyde dehydrogenase (ALDH) activity was assessed using the Aldefluor™ assay kit according to the manufacturer's instructions (Stem Cell Technologies). Briefly, 1×10^6 myeloma cells were treated with CLF-based regimens for 24 h, harvested, and resuspended in 1 ml Aldefluor™ assay buffer containing the ALDH substrate BODIPY-aminoacetaldehyde (BAAA). Negative control samples were treated with 5 μl of diethylaminobenzaldehyde (DEAB) as an inhibitor of ALDH1 enzymatic activity. Cells were incubated for 30-45 min at 37° C., then washed twice, and suspended in Aldefluor™ assay buffer. The brightly fluorescent ALDH+ cells were detected by BD LSR II flowcytometry.

[6] = tested on: human myeloma cell lines (HMCLs); assay: In vitro chemosensitivity assay (CellTiter-Glo cell viability); format: cell-based; conditions: single-agent
Description: A large panel of HMCLs representing innate sensitivity and resistance to PIs and IMiDs (similar to refractory disease) have been compiled, as well as >10 pairs of parental and clonally-derived PI/IMiD-resistant HMCLs (P vs R pairs; generated using dose escalation over a period of time) representing acquired or emerging drug resistance, and encompassing the broad spectrum of biological and genetic heterogeneity of myeloma (Mitra et al., 2017, Blood Cancer J., 7:e581). The human myeloma cell lines (HMCLs) were obtained as previously described (Mitra et al., 2017, Blood Cancer J., 7:e581). The clonally related acquired PI-resistant HMCLs were generated from parental cell lines by dose escalation of bortezomib using pulses of once-weekly bortezomib treatment as described previously (Mitra et al., 2016, Leukemia., 30:1094-1102). […]
HMCLs were treated with increasing concentrations of CLF, PIs (represented by Ix), and IMiDs (represented by Len) as single agents or in combination for 48 h, and cytotoxicity assays were performed using CellTiter-Glo® Luminescent cell viability assay (Promega Madison, WI). Luminescence was recorded in a Neo2 Microplate Reader (Biotek), and half-maximal inhibitory concentration (IC50) values were determined by calculating the nonlinear regression using the sigmoidal dose-response equation (variable slope). […]

[7] = tested on: Side population (SP) cells in PI-resistant HMCLs; assay: Side population analysis (DyeCycle Violet); format: cell-based, human
Procedure: Side population cells were investigated using DyeCycle™ Violet (cell-permeable DNA binding) assays according to manufacturer's instructions (Thermofisher). […] After 96 h, cells were stained with 10 μM Vybrant™ DyeCycle™ Violet (DCV; Molecular Probes, Eugene, OR) for 90 min at 37° C. Samples incubated with 100 μM verapamil (Sigma-Aldrich) for 30 min were used as positive control. Following dye incubation, cells were washed twice with ice-cold PBS, chilled on ice, and immediately analyzed by flow cytometry.

[8] = tested on: HMCLs (RPMI826 P/VR and U266 P/VR); assay: Colony-forming cells (CFCs) assay (Methocult); format: cell-based, human
Procedure: Colony formation potential of untreated and drug-treated HMCLs was accessed using Methylcellulose-based assay according to manufacturer's instructions (Methocult, Stem Cell Technologies). Briefly, myeloma cells were treated with either CLF alone or in combination with PI for the indicated time period. Following incubation, cells were harvested, washed with PBS, and methylcellulose-based media (Methocult) was added to cells pellets, and colonies were allowed to grow for 4 weeks in 6-well plates. Images were captured after 4 weeks with an inverted microscope (Olympus, 4×/20× lens with color camera), and cell colony numbers were counted by Image J software (NIH).

[9] = tested on: human myeloma cell lines (HMCLs); assay: Drug synergy analysis (Calcusyn, Chou-Talalay combination index); format: cell-based; conditions: CLF in combination with PI or IMiD
Procedure: HMCLs were treated with increasing concentrations of CLF, PIs (represented by Ix), and IMiDs (represented by Len) as single agents or in combination for 48 h, and cytotoxicity assays were performed using CellTiter-Glo® Luminescent cell viability assay (Promega Madison, WI). Luminescence was recorded in a Neo2 Microplate Reader (Biotek), and half-maximal inhibitory concentration (IC50) values were determined by calculating the nonlinear regression using the sigmoidal dose-response equation (variable slope). The drug cytotoxicity data and IC50 values were used to compare response and to determine synergy by Calcusyn software (Biosoft; Chou-Talalay's CI theorem) (Chou, 2011, Am J Cancer Res, 1: 925-54). CI value <0.9 denotes synergism.

RPMI8226P/VR cells [10] = assay: Superoxide levels (DHE flow cytometry); format: cell-based, human; conditions: 24 h
Procedure: Myeloma cells treated with CLF-based regimens for 24 h were incubated with 2.5 μM DHE (in RPMI) for 15 min in the dark at 37° C. Cells were then washed once with PBS, and red fluorescence was detected by flow cytometry.

RPMI8226P/VR cells [11] = assay: Mitochondrial membrane potential (JC-1); format: cell-based, human; conditions: 24 h
Procedure: CLF-treated (24 h) cells were incubated with 5 μM JC-1 dye for 15 min in the dark at 37° C. and washed twice in PBS, and then analyzed for red and green fluorescence by flow cytometry.

[12] = tested on: RPMI8226P, RPMI8226VR, U266P, and U266VR cells; assay: CFSE assay of quiescent CD138+ cells; format: cell-based, human; conditions: parental and clonally derived PI-resistant cells
Procedure: For assessing apoptosis in quiescent CD138+ cells, myeloma cells were first stained with carboxyfluorescein succinimidyl ester (CFSE; Invitrogen) for 30 min, then washed and resuspended in RPMI1640 medium and were incubated at 37° C. overnight. The next day, cells were treated and maintained further for 4 days with supplementation of the drugs every 48 h.

[13] = HMCLs and patient-derived primary cells, irrespective of PI- or IMiD-resistance

CC(C)/N=c1\cc2n(-c3ccc(Cl)cc3)c3ccccc3nc-2cc1Nc1ccc(Cl)cc1 [CLF, clofazimine]
ER stress pathway and autophagy proteins ([1]; IRE1, PERK, ATF6, mRNA sequencing, IPA and Western blotting): induces the proteins involved ER stress pathway
anti-apoptotic/survival markers and Bax expression ([1]; Western blotting): decrease in the anti-apoptotic/survival markers Bcl2, Mcl-1 and increase in Bax expression
caspase activation (Western blotting) ([1]; caspase-3, 8, 9): activated caspase-3 and 9 but not 8
STAT and HIF-1α expression ([1]; myeloma, FIG. 3D densitometry): downregulation of STATS and HIF-1α
cleaved caspase-3 levels (CyTOF) [2, 13]: elevated cleaved caspase-3 levels
marker expression (CyTOF) [2, 13]: downregulation of pS6, IRF4, pCREB, pRB, IKZF1
cleaved caspase levels (CyTOF) ([2]; all cell lines and primary samples, cluster enriched for cells exposed to high dose CLF): elevated cleaved caspase levels
myeloma survival markers incl. IRF4, IKZF1, IKZF3, CD229, CD27, pS6, pERK, IkBa (CyTOF and immunoblotting) ([2]; pre- vs post-treatment): shifts in a majority of these markers
safe dose range ([3]; corresponds to human plasma Cmax): 0.84 to 8.4 µM
human plasma Cmax ([3]; human plasma): 0.4 to 4 µg/mL
caspase-3 activity (Caspase 3/7 assay) [4]: induced caspase-3 activity
EC50 ([5]; ex vivo, patients n=12, read-out: maximum EC50): 15.2 µM
EC50 ([5]; ex vivo, patients n=12, read-out: median EC50): 2.41 µM
EC50 ([5]; ex vivo, patients n=12, read-out: minimum EC50): 1.05 µM
EC50 ([5]; patients n=12, range, read-out: ex vivo CLF EC50 values): 1 to 15 µM
apoptosis (annexin V staining) (HMCLs; CLF alone): significant apoptosis
apoptosis (annexin V staining) (HMCLs; in combination with 15 nm ixazomib): significant apoptosis
ALDH activity (ALDH+ myeloma cells): significant decrease in ALDH activity
IC50 ([6]; Homo sapiens, 48 h, panel of sensitive, innate and clonally-derived resistant HMCLs): 0.2 to 20.5 µM
anti-myeloma potency compared with other PPARg agonists (rosiglitazone, pioglitazone) [6]: most potent among all the PPARg agonists tested
side population (SP) [7]: reduced SP
colony formation ([8]; PI-resistant lines (RPMI826 P/VR and U266 P/VR)): significantly reduced colony formation
colony number and colony size ([8]; compared to control or ixazomib): significantly reduced colony number as well as colony size
therapeutic index / amount of PI/IMiD required (dose reduction index, predicted decrease in IC50) [9]: decreased the amount of PI/IMiD required to achieve effective responses
cellular superoxide anions (DHE) (RPMI8226P/VR cells [10]): induction of cellular superoxide anions
mitochondrial membrane potential (JC-1) (RPMI8226P/VR cells [11]): mitochondrial membrane depolarization
apoptosis in CFSEbright and CFSEdim cells [12]: caused apoptosis in both CFSEbright and CFSEdim cells
number of CFSE-bright (non-dividing) cells [12]: significantly reduced their number
